These results are taken from paper PMC10174255, “Drug repurposing approach against chikungunya virus: an in vitro and in silico study” (Frontiers in Cellular and Infection Microbiology, 2023).

Values joined by “and” are separate entries in the source; they are usually repeats but may differ in a detail not shown here. Identical values can stand only once.

The subject of data set [1] is CHIKV. In words: Western blot of viral capsid (C) protein. The data set is classed as cell-based, Chikungunya virus. To be noted: posttreatment, maximal non-toxic concentration, normalized to β-actin. On the procedure: To investigate the expression of viral proteins, a western blotting assay was performed. […] The cell cultures were subjected to different types of treatment with various concentrations of the appropriate drugs. Cells were lysed using the RIPA buffer and 2X laemmli buffer at 1:1 ratio. The cell culture lysates from uninfected, infected without treatment and infected treated cells were subjected to an electrophoretic run on 10% discontinuous SDS polyacrylamide gels followed by electroblotting onto nitrocellulose membranes. The membranes were then blocked for 30 minutes using phosphate-buffered saline (PBS) containing 5% bovine serum albumin. […] This monoclonal antibody is known to react with the capsid protein of CHIKV and was characterized and purified as described earlier ([Damle et al., 2016]). The membranes were thoroughly rinsed with tris-buffered saline with 0.1% Tween 20 (TBST) after overnight incubation (5 washes totaling a 20-minute soak with rocking), and then they were incubated with the appropriate horseradish peroxidase (HRP) conjugated anti-mouse IgG antibody for two hours while rocking. For developing the blot, ECL substrate (Thermo Scientific) was used in the dark. The image of the blot was captured using the Gel Documentation system (BioRad™, USA), and analysis was done. To quantify the protein signals (density) of the viral protein and housekeeping protein in each lane, ImageJ software was used. After calculating the signal values for each band, the background signals were subtracted from the signal. The relative level of viral protein was normalized to beta-actin (monoclonal antibody 15G5A11/E2, catalog no:MA1-140, Invitrogen, USA). Signal densities were determined using ImageJ software and were plotted using GraphPad Prism software version 7.

Another data set in a line: MTT cytotoxicity assay. To be noted: African green monkey.
A further data set concerns Vero CCL-81 cells. In words: MTT cytotoxicity assay. To be noted: Vero CCL-81, ≥90% cell viability.
Data set [2] concerns CHIKV. In words: Viral RNA copy number by quantitative RT-PCR.
The subject of data set [3] is CHIKV. In words: Immunofluorescence assay (percent infected cells). To be noted: posttreatment, IFA, compared to VC.
For data set [4], the system named is CHIKV. Nature of the data set: Antiviral assay (pre-, co-, posttreatment) with FFU readout. The conditions noted are these: for anti chikungunya activity: Vero CCL-81, any treatment condition; for IC50 / anti-CHIKV activity in primary screening: FFU; for IC50: Vero CCL-81; for anti-CHIKV activity in primary screening: highest nontoxic concentration.
Data set [5] has as its system CHIKV. Nature of the data set: Time-of-addition assay (extra- and intracellular virus, FFU). The conditions noted are these: for effectiveness at time points of addition: added 0, 3 and 6 h post infection; for reduction in extracellular virus titer compared to VC / reduction in intracellular virus titer compared to VC: 50 µM.
Data set [6] deals with CHIKV. Nature of the data set: Viral entry assay. To be noted: 1.56 µM.
Data set [7] deals with CHIKV. In words: Viral attachment assay. To be noted: 1.56 µM and 0.78 µM, at 4°C and 37°C.
Setting [8] is: posttreatment, 6.25 µM, VC 8.870.
The mark [9] stands for this setting: posttreatment, 12.5 µM, VC 8.870.

In the case of `Nc1nc(F)nc2nc[nH]c12` [2-Fluoroadenine], the “viral antigen (C protein) expression” value in the data set on CHIKV [1] is listed as “significant reduction”. This compound displayed a cytotoxic concentration (CC50) in “MTT cytotoxicity assay” of 437 ± 320 µM. The “The maximum nontoxic concentration used for primary screening of drugs against CHIKV” value (from here on “The maximum nontoxic concentration used”) with Vero CCL-81 cells was 100 µM. Further, the “effect on viral RNA copy number” value in the data set with CHIKV [2] (pretreatment, 100 µM) is on record as “significant reduction”. Further, the “reduction in percentage of infected cells” value (from here on “reduction in percentage”) in the data set on CHIKV [3] is “prominently observed”. In addition, in the data set on CHIKV [4], the “anti chikungunya activity” value was “exhibit anti chikungunya activity”. Further, the “mean log10 viral titer/ml” value was determined as 7.686 log10 FFU/ml in the data set on CHIKV [4] (posttreatment, 50 µM, VC 8.870); 7.284 log10 FFU/ml in the data set on CHIKV [4] (pretreatment, 50 µM, VC 8.665); 7.185 log10 FFU/ml in the data set with CHIKV [4] (pretreatment, 100 µM, VC 8.665). The half-inhibitory concentration (IC50) in the data set on CHIKV [4] (posttreatment) amounted to 7.59 µM; in the data set with CHIKV [4] (pretreatment), 9.59 µM. Further, the “anti-CHIKV activity in primary screening” value in the data set with CHIKV [4] (posttreatment) and in the data set on CHIKV [4] (pretreatment) was “effective” throughout. The “Selectivity Index (SI)” value with CHIKV [4] (pretreatment) came to 45.56. Also, the “reduction in intra- and extracellular virus titer” value with CHIKV [5] (100 µM, time of addition 0, 3, 6 h) is on record as ~ 1 log10. For the same compound, in the data set on CHIKV [5] (25 and 50 µM), the “reduction in intra- and extracellular virus titers” value is on record as “Mild reduction”. In addition, the “effectiveness at time points of addition” value in the data set on CHIKV [5] is “effective at all three time points”.
On to `COc1cccc2c1C(=O)c1c(O)c3c(c(O)c1C2=O)C[C@@](O)(C(=O)CO)C[C@@H]3O[C@H]1C[C@H](N)[C@H](O)[C@H](C)O1` [Doxorubicin], for which the “viral antigen (C protein) expression” value in the data set with CHIKV [1] was “significant reduction”. In addition, the half-maximal cytotoxic concentration (CC50) in “MTT cytotoxicity assay” came to 117 ± 8.25 µM. Besides, the “The maximum nontoxic concentration used” value with Vero CCL-81 cells came to 25 µM. In addition, the “effect on viral RNA copy number/titre” value in the data set on CHIKV [2] (posttreatment) and in the data set on CHIKV [2] (pretreatment) was “no decrease” in each case. The “reduction in percentage” value in the data set on CHIKV [3] is “prominently observed”. The “anti chikungunya activity” value with CHIKV [4] is reported as “exhibit anti chikungunya activity”. Moreover, the “Selectivity Index (SI)” value is 18.24 in the data set with CHIKV [4] (posttreatment) and 16.95 in the data set on CHIKV [4] (pretreatment). In addition, the “mean log10 viral titer/ml” value is 7.758 log10 FFU/ml with CHIKV [4] (setting [8]); 7.509 log10 FFU/ml with CHIKV [4] (setting [9]); 7.376 log10 FFU/ml in the data set with CHIKV [4] (posttreatment, 25 µM, VC 8.870); 7.460 log10 FFU/ml with CHIKV [4] (pretreatment, 12.5 µM, VC 8.665); 7.333 log10 FFU/ml with CHIKV [4] (pretreatment, 25 µM, VC 8.665). For the same compound, the IC50 came to 6.41 µM in the data set with CHIKV [4] (posttreatment) and 6.9 µM in the data set with CHIKV [4] (pretreatment). The “anti-CHIKV activity in primary screening” value in the data set on CHIKV [4] (posttreatment) and in the data set on CHIKV [4] (pretreatment) was “effective” in each case. Moreover, in the data set on CHIKV [5] (25 µM, added at 0, 3 and 6 h), the “effect on intra- and extracellular virus particles” value was “exerted reduction”. For the same compound, the “reduction in intracellular virus titer” value in the data set with CHIKV [5] (12.5 and 6.25 µM) is “not as prominent as extracellular virus titer”.
For the compound `C[C@H](N[C@@H](CCc1ccccc1)C(=O)O)C(=O)N1CCC[C@H]1C(=O)O` [Enalaprilat], the “effect on virus titer in virus entry assay” value in the data set with CHIKV [6] is reported as “affects the virus titer”. In “MTT cytotoxicity assay”, this compound gave a cytotoxic concentration (CC50) of 83 ± 18.7 µM. Also, the “The maximum nontoxic concentration used” value in the data set with Vero CCL-81 cells came out at 1.56 µM. In the data set on CHIKV [7], the “effect on virus attachment” value is recorded as “shown to influence virus attachment”. Also, the “effect on viral RNA titer” value in the data set with CHIKV [2] (cotreatment) is given as “No significant reduction”. Also, in the data set on CHIKV [4], the “anti chikungunya activity” value is “exhibit anti chikungunya activity”. Besides, in the data set on CHIKV [4] (cotreatment), the “Selectivity Index (SI)” value amounted to 167.42, the IC50 worked out at 0.496 µM and the “anti-CHIKV activity in primary screening” value is given as “effective”. Further, in the data set with CHIKV [4] (cotreatment, 0.78 µM, VC 8.194), the “mean log10 viral titer/ml” value was found to be 7.297 log10 FFU/ml. Also, in the data set with CHIKV [4] (cotreatment, 1.56 µM, VC 8.194), the “mean log10 viral titer/ml” value was 7.052 log10 FFU/ml. Further, in the data set on CHIKV [4] (posttreatment), the “anti-CHIKV activity in primary screening” value is recorded as “did not affect”.
As for `Oc1ccc(/C=C/c2cc(O)cc(O)c2)cc1` [Resveratrol], the half-maximal cytotoxic concentration (CC50) in the data set “MTT cytotoxicity assay” was determined as 40.9 ± 4.57 µM. For the same compound, the “The maximum nontoxic concentration used” value in the data set with Vero CCL-81 cells was 12.5 µM. In addition, the “effect on viral RNA copy number/titre” value in the data set on CHIKV [2] (posttreatment) is listed as “No reduction”. The “reduction in percentage” value in the data set on CHIKV [3] is “prominently observed”. The “anti chikungunya activity” value with CHIKV [4] is “exhibit anti chikungunya activity”. Moreover, in the data set on CHIKV [4] (posttreatment), the “Selectivity Index (SI)” value is listed as 23.74, the IC50 worked out at 1.72 µM and the “anti-CHIKV activity in primary screening” value is listed as “effective”. In the data set with CHIKV [4] (setting [8]), the “mean log10 viral titer/ml” value stood at 8.261 log10 FFU/ml. In addition, in the data set on CHIKV [4] (setting [9]), the “mean log10 viral titer/ml” value amounted to 7.486 log10 FFU/ml. Moreover, the “effect on extracellular titer of virus” value in the data set with CHIKV [5] (6.25 µM, added at 3 and 6 h) is given as “mild but significant reduction”. Also, in the data set with CHIKV [5] (12.5 µM, added at 0, 3 and 6 h), the “effect on intra- and extracellular virus titer” value is given as “significant decrease”.
In the case of `CO[C@H]1C[C@@H]2CC[C@@H](C)[C@@](O)(O2)C(=O)C(=O)N2CCCC[C@H]2C(=O)O[C@H]([C@H](C)C[C@@H]2CC[C@@H](OC(=O)C(C)(CO)CO)[C@H](OC)C2)CC(=O)[C@H](C)/C=C(\C)[C@@H](O)[C@@H](OC)C(=O)[C@H](C)C[C@H](C)/C=C/C=C/C=C/1C` [Temsirolimus], the “viral antigen (C protein) expression” value with CHIKV [1] is “significant reduction”. For the same compound, in the data set “MTT cytotoxicity assay”, the 50% cytotoxic concentration (CC50) worked out at 413 ± 378 µM. Further, in the data set on Vero CCL-81 cells, the “The maximum nontoxic concentration used” value amounted to 50 µM. In addition, the “decrease in RNA copy number of CHIKV compared to VC” value with CHIKV [2] (posttreatment, 50 µM) is recorded as 2.487 log10. Further, the “decrease in viral RNA copy number compared to VC” value in the data set on CHIKV [2] (pretreatment, 50 µM) is reported as 0.809 log10. Further, the “reduction in percentage” value in the data set with CHIKV [3] is given as “prominently observed”. Besides, the “anti chikungunya activity” value in the data set on CHIKV [4] is given as “exhibit anti chikungunya activity”. Moreover, in the data set on CHIKV [4] (discussion summary), the “reduction of CHIKV titre compared to VC” value was 4-5 log10. In addition, the “Selectivity Index (SI)” value in the data set with CHIKV [4] (posttreatment) is 68.41; in the data set with CHIKV [4] (pretreatment), 85.1 and 85.11. Moreover, the “mean log10 viral titer/ml” value in the data set with CHIKV [4] (posttreatment, 25 µM, VC 8.870) is 7.903 log10 FFU/ml; in the data set with CHIKV [4] (posttreatment, 50 µM, VC 8.870), 3.678 log10 FFU/ml; with CHIKV [4] (pretreatment, 25 µM, VC 8.665), 7.279 log10 FFU/ml. Also, the values for the half-inhibitory concentration (IC50) with CHIKV [4] (posttreatment) and with CHIKV [4] (pretreatment) were 6.04 µM and 4.86 µM, respectively. Moreover, the “anti-CHIKV activity in primary screening” value in the data set on CHIKV [4] (posttreatment) and with CHIKV [4] (pretreatment) was “effective” each time. Moreover, the “reduction in extracellular virus titer compared to VC” value in the data set with CHIKV [5] (added at 0 h and 3 h) is on record as ~ 4 log10; in the data set with CHIKV [5] (added at 6 h) it was ~ 3 log10. For the same compound, the “reduction in intracellular virus titer compared to VC” value with CHIKV [5] (added at 0 h and 3 h) was ~ 3 log10; with CHIKV [5] (added at 6 h), ~ 2 log10. Also, in the data set on CHIKV [5], the “effectiveness at time points of addition” value is reported as “effective at all the three time points”.
